Experimental findings from paper PMC2642990, “The Glycogen-Binding Domain on the AMPK β Subunit Allows the Kinase to Act as a Glycogen Sensor” (Cell Metabolism, 2009) are described below.

Molecules are shown by their SMILES.

The assay has as its target native rat liver AMPK (Rattus norvegicus, UniProt P80386). Put plainly: AMPK kinase assay (SAMS peptide), native rat liver AMPK in solution. The format is biochemical. Particulars: oligosaccharides; read-out: IC50 / half-maximal effect, inhibition of AMPK. As to the method: We next tested the effect of glycogen on the activity of the native AMPK complex purified from rat liver ([Hawley et al., 1996]). […] The bovine liver glycogen inhibited AMPK completely with an IC50 (concentration causing half-maximal inhibition) of 30 ± 9 mM glucose equivalents (Figure 2A).
Figure 2 Allosteric Inhibition of AMPK by Different Glycogen Preparations (A) Concentration dependence of inhibition of native rat liver AMPK by preparations of bovine and rat liver glycogen; glycogen concentrations expressed as glucose produced after total hydrolysis. Data were fitted to an IC50 equation (see Supplemental Experimental Procedures), and curves were generated using the estimated best-fit parameters. (B) Concentration dependence of inhibition of native rat liver AMPK by bovine liver glycogen in the presence and absence of 200 μM AMP; curves were generated as in (A). (C) Inhibition by bovine liver glycogen of recombinant AMPK complex (myc-α1:β1:γ1) containing full-length (1–270) or truncated β1 subunit lacking the GBD (172–270). Complexes were expressed in CCL13 cells and purified by immunoprecipitation prior to assay with or without glycogen (200 mM glucose equivalents). Data are means ± SEM (n = 3). ^∗Activity different from control without glycogen by t test (p < 0.05). (D) Inhibition by bovine liver glycogen (200 mM glucose equivalents) of purified, native rat liver AMPK (a mixture of α1β1γ1 and α2β1γ1 complexes) that had been recovered by immunoprecipitation (IP) using anti-α1, anti-α2, or a mixture of anti-α1/-α2 antibodies or assayed in solution without immunoprecipitation. Results are expressed as percentages of the activity in controls without glycogen, and data are mean ± SEM (n = 3). (E) Absorption spectra of bovine and rat liver glycogen preparations in complex with iodine. […]
Purification of Native Rat Liver, AMPK, Recombinant AMPK, and AMPK Assays AMPK was purified from rat liver as far as the gel filtration step (Hawley et al., 1996). The kinase was assayed using the SAMS peptide (Davies et al., 1989). IC50 values for inhibition were estimated by fitting data using GraphPad Prism to the equation: Activity = Residual + Maximum - (Maximum × [Inhibitor]/(IC50+[Inhibitor])) where Residual is the activity in the presence of maximal inhibition, Maximum is the maximal inhibition and [inhibitor] is the concentration of the inhibitory molecule. For recombinant AMPK, constructs encoding myc-tagged α1, β1 and γ1 subunits of AMPK were co-transfected into CCL13 cells using modifications of previous methods (Woods et al., 1996). DNA (10 µg) was dissolved in sterile water (450 µl) to which 50 μl of 2.5 M CaCl2 was added, and the solution vortexed for 1 min. […]

Sequence of native rat liver AMPK (P80386 2-270): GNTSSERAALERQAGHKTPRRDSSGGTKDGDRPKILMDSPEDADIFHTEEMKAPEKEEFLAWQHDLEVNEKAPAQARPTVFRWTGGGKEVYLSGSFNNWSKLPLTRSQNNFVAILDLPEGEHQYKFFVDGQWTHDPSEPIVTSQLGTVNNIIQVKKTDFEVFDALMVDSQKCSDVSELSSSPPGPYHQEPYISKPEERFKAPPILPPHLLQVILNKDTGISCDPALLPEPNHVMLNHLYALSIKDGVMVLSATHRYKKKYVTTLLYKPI
Sequence of native rat liver AMPK (P54645 whole entry partner): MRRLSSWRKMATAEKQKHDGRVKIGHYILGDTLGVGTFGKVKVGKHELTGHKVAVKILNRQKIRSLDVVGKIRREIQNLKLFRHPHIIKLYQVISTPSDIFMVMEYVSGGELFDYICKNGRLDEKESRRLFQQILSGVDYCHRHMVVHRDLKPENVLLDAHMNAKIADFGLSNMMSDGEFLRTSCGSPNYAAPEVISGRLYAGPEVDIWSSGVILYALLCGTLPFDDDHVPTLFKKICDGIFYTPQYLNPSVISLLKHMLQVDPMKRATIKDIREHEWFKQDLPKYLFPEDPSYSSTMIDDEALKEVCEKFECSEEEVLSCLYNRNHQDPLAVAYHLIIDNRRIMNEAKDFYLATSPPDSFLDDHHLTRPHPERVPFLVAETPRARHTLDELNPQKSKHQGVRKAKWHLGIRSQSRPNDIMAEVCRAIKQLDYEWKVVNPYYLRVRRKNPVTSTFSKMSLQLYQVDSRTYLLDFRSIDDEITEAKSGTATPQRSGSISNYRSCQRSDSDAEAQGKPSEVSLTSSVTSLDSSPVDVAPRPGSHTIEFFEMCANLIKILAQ
Sequence of native rat liver AMPK (Q09137 whole entry partner): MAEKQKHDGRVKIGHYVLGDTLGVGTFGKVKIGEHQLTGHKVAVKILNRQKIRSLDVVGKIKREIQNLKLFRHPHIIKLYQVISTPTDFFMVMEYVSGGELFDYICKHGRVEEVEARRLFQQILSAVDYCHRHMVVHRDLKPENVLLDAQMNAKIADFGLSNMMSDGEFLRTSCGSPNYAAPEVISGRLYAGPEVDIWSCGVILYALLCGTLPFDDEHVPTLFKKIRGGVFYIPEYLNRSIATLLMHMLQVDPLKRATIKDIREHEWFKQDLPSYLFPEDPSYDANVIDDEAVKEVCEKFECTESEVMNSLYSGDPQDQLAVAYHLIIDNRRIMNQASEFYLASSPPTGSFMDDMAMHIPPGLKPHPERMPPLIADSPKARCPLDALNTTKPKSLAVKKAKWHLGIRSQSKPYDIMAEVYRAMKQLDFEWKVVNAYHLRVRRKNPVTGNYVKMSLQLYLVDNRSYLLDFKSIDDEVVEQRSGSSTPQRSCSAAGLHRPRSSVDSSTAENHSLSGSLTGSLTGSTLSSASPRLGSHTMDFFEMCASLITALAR
Sequence of native rat liver AMPK (P80385 whole entry partner): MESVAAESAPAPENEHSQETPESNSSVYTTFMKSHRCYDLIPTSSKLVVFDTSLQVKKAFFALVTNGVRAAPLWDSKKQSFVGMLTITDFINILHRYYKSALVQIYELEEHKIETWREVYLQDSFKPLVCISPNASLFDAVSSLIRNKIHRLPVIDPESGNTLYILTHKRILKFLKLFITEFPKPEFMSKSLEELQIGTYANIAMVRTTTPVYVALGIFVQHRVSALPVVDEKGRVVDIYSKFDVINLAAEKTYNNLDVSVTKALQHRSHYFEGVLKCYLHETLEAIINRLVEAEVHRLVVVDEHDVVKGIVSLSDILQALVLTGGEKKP

Turning to `OC[C@H]1O[C@H](OC[C@H]2OC(O)[C@H](O)[C@@H](O)[C@@H]2O)[C@H](O)[C@@H](O)[C@@H]1O` (stereo partly shown) [isomaltose], the IC50 worked out at 16 mM.
